Results published in US8932597B2 (priority 2008, dated 2015).

What was measured:
HuM2e antibody 23K12 = assay type: binding, human
[1] = tested on: anti-M2 human monoclonal antibody Z3G1; assay type: binding

407 (SLLTEVETPIRNEWGCRCNDHSD; epitope peptide) [compound 407]
Signal (peptides that bind to 23K21 and 8I10) (HuM2e antibody 23K12): 1200 | Signal (peptides that bind to Z3G1) [1]: 2537

503 (SLLTEVETPIRNEWGCWCNDSSD; epitope peptide) [compound 503]
Signal (peptides that bind to 23K21 and 8I10) (HuM2e antibody 23K12): 1061 | Signal (peptides that show specific binding to Z3G1) [1]: 2437

381 (SLLQEVETPIRNEWGCRCNDSSD; epitope peptide) [compound 381]
Signal (peptides that bind to 23K21 and 8I10) (HuM2e antibody 23K12): 1399 | Signal (peptides that show specific binding to Z3G1) [1]: 2432

303 (CSLLTEVGMCLLTEV; epitope sequence) [compound 303]
Signal (peptides that bind to 23K21 and 8I10) (HuM2e antibody 23K12): 1941 | Signal (peptides that bind to Z3G1) [1]: 2618

587 (SLLTEVETPIRCEWGCRCNDSSD; epitope peptide) [compound 587]
Signal (peptides that bind to 23K21 and 8I10) (HuM2e antibody 23K12): 850 | Signal (peptides that show specific binding to Z3G1) [1]: 1956

571 (SLLTEVETPIRNLWGCRCNDSSD; epitope peptide) [compound 571]
Signal (peptides that bind to 23K21 and 8I10) (HuM2e antibody 23K12): 870 | Signal (peptides that show specific binding to Z3G1) [1]: 2415

685 (SLLTEVETPIRNVWGCRCNDSSD; epitope peptide) [compound 685]
Signal (peptides that bind to 23K21 and 8I10) (HuM2e antibody 23K12): 728 | Signal (peptides that show specific binding to Z3G1) [1]: 2281

460 (MSLLTECGMSLLCEV; epitope peptide) [compound 460]
Signal (peptides that bind to 23K21 and 8I10) (HuM2e antibody 23K12): 1268 | Signal (peptides that bind to Z3G1) [1]: 2373

317 (MSLLTEVGMSLCTEV; epitope peptide) [compound 317]
Signal (peptides that bind to 23K21 and 8I10) (HuM2e antibody 23K12): 1804 | Signal (peptides that bind to Z3G1) [1]: 2895

250 (CSLLTEVETCTEVETPIRNEWGSRSC; epitope peptide) [compound 250]
Signal (peptides that bind to 23K21 and 8I10) (HuM2e antibody 23K12): 786 | Signal (peptides that show specific binding to Z3G1) [1]: 2474

544 (SLLTEVETPIRNEWGCRCRDSSD; epitope peptide) [compound 544]
Signal (peptides that bind to 23K21 and 8I10) (HuM2e antibody 23K12): 924 | Signal (peptides that bind to Z3G1) [1]: 2447

456 (CSLLTECGMSLLCEV; epitope peptide) [compound 456]
Signal (peptides that bind to 23K21 and 8I10) (HuM2e antibody 23K12): 1294 | Signal (peptides that bind to Z3G1) [1]: 1640

386 (SLLTEVETPIRNEVGCRCNDSSD; epitope peptide) [compound 386]
Signal (peptides that bind to 23K21 and 8I10) (HuM2e antibody 23K12): 1371 | Signal (peptides that show specific binding to Z3G1) [1]: 2411

565 (SLLTEVETPIRVEWGCRCNDSSD; epitope peptide) [compound 565]
Signal (peptides that bind to 23K21 and 8I10) (HuM2e antibody 23K12): 884 | Signal (peptides that show specific binding to Z3G1) [1]: 2300

422 (SLLTEVETPIRNEWGCRCNDSFD; epitope peptide) [compound 422]
Signal (peptides that bind to 23K21 and 8I10) (HuM2e antibody 23K12): 947 | Signal (peptides that bind to Z3G1) [1]: 2492

680 (SLLTEVETPIVNEWGCRCNDSSD; epitope peptide) [compound 680]
Signal (peptides that bind to 23K21 and 8I10) (HuM2e antibody 23K12): 729 | Signal (peptides that show specific binding to Z3G1) [1]: 2366

395 (SLLTEVETPIRNEWGCRCNNSSD; epitope peptide) [compound 395]
Signal (peptides that bind to 23K21 and 8I10) (HuM2e antibody 23K12): 926 | Signal (peptides that bind to Z3G1) [1]: 2502

577 (SLLTEVETPIRNIWGCRCNDSSD; epitope peptide) [compound 577]
Signal (peptides that bind to 23K21 and 8I10) (HuM2e antibody 23K12): 862 | Signal (peptides that show specific binding to Z3G1) [1]: 2490

412 (SLLTEVETPIRNEWGCRCNDNSD; epitope peptide) [compound 412]
Signal (peptides that bind to 23K21 and 8I10) (HuM2e antibody 23K12): 708 | Signal (peptides that bind to Z3G1) [1]: 2389

582 (SLLTEVETPIRAEWGCRCNDSSD; epitope peptide) [compound 582]
Signal (peptides that bind to 23K21 and 8I10) (HuM2e antibody 23K12): 856 | Signal (peptides that show specific binding to Z3G1) [1]: 2306

638 (SLLTEVETPIRNEWGTRCNDSSD; epitope peptide) [compound 638]
Signal (peptides that bind to 23K21 and 8I10) (HuM2e antibody 23K12): 767 | Signal (peptides that show specific binding to Z3G1) [1]: 2404

644 (SLLTEVETPIRNEWGVRCNDSSD; epitope peptide) [compound 644]
Signal (peptides that bind to 23K21 and 8I10) (HuM2e antibody 23K12): 764 | Signal (peptides that show specific binding to Z3G1) [1]: 2444

430 (SLLTEVETPIRNEWGCRCNDSRD; epitope peptide) [compound 430]
Signal (peptides that bind to 23K21 and 8I10) (HuM2e antibody 23K12): 833 | Signal (peptides that bind to Z3G1) [1]: 2373

679 (SLLTEVETPIRNEWGCECNDSSD; epitope peptide) [compound 679]
Signal (peptides that bind to 23K21 and 8I10) (HuM2e antibody 23K12): 730 | Signal (peptides that show specific binding to Z3G1) [1]: 2148

283 (CSLLTEVGSLLTEV; epitope peptide) [compound 283]
Signal (peptides that bind to 23K21 and 8I10) (HuM2e antibody 23K12): 2494 | Signal (peptides that show specific binding to Z3G1) [1]: 2903

707 (SLLTEVETPIANEWGCRCNDSSD; epitope peptide) [compound 707]
Signal (peptides that bind to 23K21 and 8I10) (HuM2e antibody 23K12): 708 | Signal (peptides that show specific binding to Z3G1) [1]: 2302

714 (SLLTEVETPIRNEWCCRCNDSSD; epitope peptide) [compound 714]
Signal (peptides that bind to 23K21 and 8I10) (HuM2e antibody 23K12): 704 | Signal (peptides that show specific binding to Z3G1) [1]: 2388

446 (SLLTEVETPIRNEWGCRCND; epitope peptide) [compound 446]
Signal (peptides that bind to 23K21 and 8I10) (HuM2e antibody 23K12): 738 | Signal (peptides that bind to Z3G1) [1]: 2276

683 (SLLTEVETPIRNEWGCACNDSSD; epitope peptide) [compound 683]
Signal (peptides that bind to 23K21 and 8I10) (HuM2e antibody 23K12): 729 | Signal (peptides that show specific binding to Z3G1) [1]: 2301

291 (MSLLTEVGMCLCTCV; epitope peptide) [compound 291]
Signal (peptides that bind to 23K21 and 8I10) (HuM2e antibody 23K12): 2110 | Signal (peptides that bind to Z3G1) [1]: 2842

645 (SLLTEVVTPIRNEWGCRCNDSSD; epitope peptide) [compound 645]
Signal (peptides that bind to 23K21 and 8I10) (HuM2e antibody 23K12): 763 | Signal (peptides that show specific binding to Z3G1) [1]: 1492

626 (SLLTEVETPIRNEWGCRCYDSSD; epitope peptide) [compound 626]
Signal (peptides that bind to 23K21 and 8I10) (HuM2e antibody 23K12): 791 | Signal (peptides that bind to Z3G1) [1]: 2385

649 (SLLTEVETTIRNEWGCRCNDSSD; epitope peptide) [compound 649]
Signal (peptides that bind to 23K21 and 8I10) (HuM2e antibody 23K12): 760 | Signal (peptides that show specific binding to Z3G1) [1]: 2295

553 (SLLTEVTTPIRNEWGCRCNDSSD; epitope peptide) [compound 553]
Signal (peptides that bind to 23K21 and 8I10) (HuM2e antibody 23K12): 909 | Signal (peptides that show specific binding to Z3G1) [1]: 2102

309 (CSLLTEVGMSLLCEV; epitope peptide) [compound 309]
Signal (peptides that bind to 23K21 and 8I10) (HuM2e antibody 23K12): 1891 | Signal (peptides that bind to Z3G1) [1]: 2734

449 (SLNTEVETPIRNEWGCRCNDSSD; epitope peptide) [compound 449]
Signal (peptides that bind to 23K21 and 8I10) (HuM2e antibody 23K12): 1333 | Signal (peptides that show specific binding to Z3G1) [1]: 1908

681 (SLLTEVETPIRNEWACRCNDSSD; epitope peptide) [compound 681]
Signal (peptides that bind to 23K21 and 8I10) (HuM2e antibody 23K12): 729 | Signal (peptides that show specific binding to Z3G1) [1]: 2431

657 (SLLTEVDTPIRNEWGCRCNDSSD; epitope peptide) [compound 657]
Signal (peptides that bind to 23K21 and 8I10) (HuM2e antibody 23K12): 751 | Signal (peptides that show specific binding to Z3G1) [1]: 2095

709 (SLLTEVLTPIRNEWGCRCNDSSD; epitope peptide) [compound 709]
Signal (peptides that bind to 23K21 and 8I10) (HuM2e antibody 23K12): 707 | Signal (peptides that show specific binding to Z3G1) [1]: 1743

532 (MSCLTEVGMSLLTEV; epitope peptide) [compound 532]
Signal (peptides that bind to 23K21 and 8I10) (HuM2e antibody 23K12): 968 | Signal (peptides that bind to Z3G1) [1]: 2336

592 (MSLCTEVGCSLLTEC; epitope peptide) [compound 592]
Signal (peptides that bind to 23K21 and 8I10) (HuM2e antibody 23K12): 840 | Signal (peptides that bind to Z3G1) [1]: 1971

448 (SLLTEVETPIRNEWGCRCNDSS; epitope peptide) [compound 448]
Signal (peptides that bind to 23K21 and 8I10) (HuM2e antibody 23K12): 833 | Signal (peptides that bind to Z3G1) [1]: 2325

464 (SLLTEVGSLCTEV; epitope peptide) [compound 464]
Signal (peptides that bind to 23K21 and 8I10) (HuM2e antibody 23K12): 1256 | Signal (peptides that show specific binding to Z3G1) [1]: 2219

666 (SLLTEVETPIRNAWGCRCNDSSD; epitope peptide) [compound 666]
Signal (peptides that bind to 23K21 and 8I10) (HuM2e antibody 23K12): 743 | Signal (peptides that show specific binding to Z3G1) [1]: 2334

602 (SLLTEVETEIRNEWGCRCNDSSD; epitope peptide) [compound 602]
Signal (peptides that bind to 23K21 and 8I10) (HuM2e antibody 23K12): 828 | Signal (peptides that show specific binding to Z3G1) [1]: 2368

289 (MSLCTEVGMSLCTEV; epitope peptide) [compound 289]
Signal (peptides that bind to 23K21 and 8I10) (HuM2e antibody 23K12): 2153 | Signal (peptides that bind to Z3G1) [1]: 1093

457 (SLLTEVETPMRNEWGCRCNDSSD; epitope peptide) [compound 457]
Signal (peptides that bind to 23K21 and 8I10) (HuM2e antibody 23K12): 1281 | Signal (peptides that show specific binding to Z3G1) [1]: 2297

436 (SLLTEVETPI; epitope peptide) [compound 436]
Signal (peptides that bind to 23K21 and 8I10) (HuM2e antibody 23K12): 1084 | Signal (peptides that bind to Z3G1) [1]: 2465

516 (SLLTEVETPIRNEWGCRCPDSSD; epitope peptide) [compound 516]
Signal (peptides that bind to 23K21 and 8I10) (HuM2e antibody 23K12): 1024 | Signal (peptides that bind to Z3G1) [1]: 2449

426 (SLLTEVETPIRNEWGCRCNDSLD; epitope peptide) [compound 426]
Signal (peptides that bind to 23K21 and 8I10) (HuM2e antibody 23K12): 779 | Signal (peptides that bind to Z3G1) [1]: 2400

607 (SLLTEVESPIRNEWGCRCNDSSD; epitope peptide) [compound 607]
Signal (peptides that bind to 23K21 and 8I10) (HuM2e antibody 23K12): 817 | Signal (peptides that show specific binding to Z3G1) [1]: 2156

299 (SLLTEVGCLCTCV; epitope peptide) [compound 299]
Signal (peptides that bind to 23K21 and 8I10) (HuM2e antibody 23K12): 1963 | Signal (peptides that show specific binding to Z3G1) [1]: 2346

614 (SLLTEVETVIRNEWGCRCNDSSD; epitope peptide) [compound 614]
Signal (peptides that bind to 23K21 and 8I10) (HuM2e antibody 23K12): 810 | Signal (peptides that show specific binding to Z3G1) [1]: 2264

593 (SLLTEVEIPIRNEWGCRCNDSSD; epitope peptide) [compound 593]
Signal (peptides that bind to 23K21 and 8I10) (HuM2e antibody 23K12): 839 | Signal (peptides that show specific binding to Z3G1) [1]: 2365

545 (SLLTEVSTPIRNEWGCRCNDSSD; epitope peptide) [compound 545]
Signal (peptides that bind to 23K21 and 8I10) (HuM2e antibody 23K12): 923 | Signal (peptides that show specific binding to Z3G1) [1]: 2288

640 (SLLTEVETPIRNKWGCRCNDSSD; epitope peptide) [compound 640]
Signal (peptides that bind to 23K21 and 8I10) (HuM2e antibody 23K12): 765 | Signal (peptides that show specific binding to Z3G1) [1]: 2402

433 (SLLTEVETPIRNEWGCRCNDSWD; epitope peptide) [compound 433]
Signal (peptides that bind to 23K21 and 8I10) (HuM2e antibody 23K12): 971 | Signal (peptides that bind to Z3G1) [1]: 2477
